Experiments:
Format in all cases: in vivo, mouse
[1] = system: amyloid plaques (D54D2); experiment: D54D2 amyloid plaque staining in APOE4-KI 5×FAD hippocampus; details: APOE4-KI 5×FAD mice, PLX3397 diet combined with 21 days A+V GENUS
Procedure: Given that APOE4+ individuals accumulate A #earlier than non-carriers, and that APOE facilitates the response of microglia to amyloid, GENUS outcomes in an APOE4-KI amyloid model were examined. To this end, 21d A+V (audio and visual) GENUS in APOE-KI 5×FAD model was performed and amyloid and microglial outcomes were examined.
Next, 7-8 month old male APOE4-KI 5×FAD animals were treated with 3 weeks of PLX3397 diet (or control), followed by 21 days of A+V GENUS, during which animals remained on their diets (FIG. 37).

[2] = system: D54D2 positive amyloid; experiment: D54D2 amyloid immunohistochemistry in 5×FAD mice
Description: It was next sought to understand whether Plx3397 administration-dependent electrophysiological alterations were attributed to changes in amyloid plaque levels. […] In the cuprizone model of demyelination, Plx33977 administration preserved myelin. It was thus considered whether electrophysiological alterations are associated with myelin levels in Plx3397 treated 5×FAD mice.

[3] = system: C1q; experiment: C1q signal intensity immunohistochemistry; details: 5×FAD mice
Description: Elevated expression of C1q is observed in both human AD and mouse models of AD, and further such an elevated expression is closely associated with the elimination of synapses in microglia. In addition, MHC2 expression is increased in the AD brain. Therefore, to test whether these treatments, that improved synaptic density, had any effect on these neuroinflammatory markers, C1q (Abcam, #ab182451) and MHC2 (EMD Millipore, #MABF33) levels (FIGS. 5A-5D) were examined.
C1q and MHC2 signal intensity: Using an LSM 710 with a 20× or 40× objectives, z stacks of the entire slice thickness […] (40 images from each field) were acquired. The signal intensity was measured.
C1q and MHC2 signal intensity: Using an LSM 710 with a 20× or 40× objectives, z stacks of the entire slice thickness […] (40 images from each field) were acquired. The signal intensity was measured in Imaris.

[4] = system: synaptophysin; experiment: Synaptophysin western blot and immunohistochemistry; details: 5×FAD mice
Procedure: Loss of synapses and neurons are closely associated with higher neuroinflammatory response and cognitive decline in AD. Therefore, synaptic markers in the visual cortex of Plx3397 and/or GENUS treated mice were evaluated. […] Thus, whether these treatments had any effect on neuronal density by immunohistochemical analysis of neuronal marker NeuN was examined (Synaptic Systems, #266 004) positive cells (FIG. 4A).
The visual cortex was dissected out and snap-frozen in liquid nitrogen and stored in an −80° C. freezer until processing. Samples were homogenized using a glass homogenizer with RIPA (50 mM Tris HCl pH 8.0, 150 mM NaCl, 1% NP-40, 0.5% sodium deoxycholate, 0.1% SDS) buffer which contains protease and phosphatase inhibitor. The concentration of proteins in samples were quantified using a Bio-Rad protein assay. Equal concentrations of proteins were prepared and added with SDS—sample buffer. […] of protein was loaded onto 4-20% polyacrylamide gels and electrophoresed. Protein was transferred from acrylamide gels to nitrocellulose membranes for 12 min (Semi-dry system, Bio-Rad). Membranes were blocked using BSA (5% w/v) diluted in TBS containing 0.1% Tween-20 (TBSTw), then incubated in primary antibodies overnight at 4° C. The following day, they were washed three times with TBSTw and incubated with horseradish peroxidase-linked secondary antibodies (GE Healthcare) at room temperature for 60 min. After three further washes with TBSTw, membranes were treated with chemiluminescence substrates and the blots were visualized (Chem doc, Bio-Rad). Signal intensities were quantified using ImageJ 1.46q and normalized to values of loading control.
These observations led to examination of the effect of Plx3397 administration on neuronal integrity. […]
The brain was perfused with PBS and fixed with 4% PFA. […] Signal intensities were quantified using ImageJ 1.46q and normalized to values of loading control.

[5] = hippocampus, chronic Plx3397 vs control

## FC(F)(F)c1ccc(CNc2ccc(Cc3c[nH]c4ncc(Cl)cc34)cn2)cn1 [Plx3397, Pexidartinib]
[1]; hippocampus CA1
  amyloid plaque number: significant reduction
[1]
  amyloid total area: significant reduction
[1]; vs standard diet
  amyloid staining mean intensity: significant reduction
[2]; [5]
  amyloid: did not affect
[2]; visual cortex, chronic Plx3397, not affected vs control
  amyloid levels (D54D2 positive amyloid signal): 9894±1181 au
[3]; [5]
  C1q levels: reduced
[3]; visual cortex, Plx3397 50 days
  C1q: 22040955±1586416 au
[4]; [5]
  synaptophysin: increased
[4]; visual cortex, IHC, Plx3397 50 days
  synaptophysin signals: 6524128709±177336289 au
[4]; visual cortex, control 100±12.03
  synaptophysin level (western blot): 185.3±23.83

Source: US20230181905A1, “Systems, Devices, and Methods for Enhancing the Neuroprotective Effects of Non-Invasive Gamma Stimulation with Pharmacological Agents” (Massachusetts Institute of Technology, priority 2021, published 2023)
